# Measured values: patent US10857230B2, “Co-therapy comprising a small molecule CSF-1R inhibitor and an agonistic antibody that specifically binds CD40 for the treatment of cancer” (Janssen Biotech, Inc., priority 2017, dated 2020)
# System: MC38 murine colon carcinoma cells
# Experiment: MC38 Tumor Size Assay (Example 1)
# Assay type: in vivo, C57BL/6 mice
# Details: for Median TTE: 61-day study
# Method: The mice were housed on irradiated Enrich-o'Cobs™ bedding in static microisolators on a 12-hour light cycle at 20-22° C. (68-72° F.) and 40-60% humidity.
# MC38 murine colon carcinoma cells were grown in Dulbecco's Modified Eagle Medium (DMEM) supplemented with 10% fetal bovine serum and 2 mM glutamine, 100 units/mL penicillin G sodium, 100 μg/mL streptomycin sulfate, and 25 μg/mL gentamicin.
# The MC38 colon cells used for implantation were harvested during log phase growth and re-suspended in cold PBS. Mice were anesthetized with isoflurane prior to implantation. Each mouse was injected subcutaneously in the right flank with 1×10^6 tumor cells (0.1 mL cell suspension) and tumors were monitored as their volumes approached the target range of 350 to 500 mm^3. […] Tumors were measured with calipers twice weekly in two dimensions. Tumor size was calculated using the formula:
# where w=width and l=length, in mm, of a tumor. Tumor weight was estimated with the assumption that 1 mg is equivalent to 1 mm^3 of tumor volume.
# The compound of formula (I) was stored at room temperature and antibody stock solutions were stored at 4° C. upon receipt.
# Each week of dosing, the compound of formula (I) was dissolved in 0.5% HPMC to yield a 1.0 mg/mL dosing solution. The dosing solution was stored at 4° C., protected from light. The rat IgG2a isotype and anti-CSF1R dosing solutions were prepared fresh each day by diluting aliquots of the stock solutions with PBS to yield 1.0 mg/mL dosing solutions. The dosing solutions were stored at 4° C., protected from light. The anti-mCD40 dosing solution was prepared fresh each day by diluting an aliquot of the stock solution with PBS to yield a 0.1 mg/mL dosing solution. The dosing solution was stored at 4° C., protected from light.
# On Day 1 of the study, fourteen groups of C57BL/6 mice (n=10) began dosing according to the following protocol.
# The vehicle (0.5% HPMC) and the compound of formula (I) were administered orally (p.o.). The rat IgG2a isotype control, anti-mCD40, and anti-CSF1R were administered intraperitoneally (i.p.). Rat IgG2a(2A3) was administered at […]. The compound of formula (I) and anti-CSF1R were administered at 10 mg/kg, and anti-mCD40 was administered at 1 mg/kg. The dosing volume for all animals was 10 mL/kg (0.2 mL per 20-g mouse) and was adjusted for body weight.
# Tumors were measured using calipers twice per week. […] TGI (tumor growth inhibition) analysis was performed on Day 15. The MTV (n), the median tumor volume for the number of animals, n, on Day 15, was determined for each group. Percent tumor growth inhibition (% TGI) was defined as the difference between the MTV of the designated control group (Group 1) and the MTV of the drug-treated group, expressed as a percentage of the MTV of the control group: […]
# The data set for TGI analysis included all animals in a group, except those that died due to treatment-related or non-treatment related causes
# Animals were monitored individually for tumor growth until Day 61. The study protocol specified a tumor growth delay assay based on the median time-to-endpoint (TTE) in a treated group versus the control group. Each animal was marked for tumor progression (TP) when its tumor reached the 1500 mm^3 volume endpoint. The TTE for each mouse was calculated with the following equation: […]
# where b is the intercept and m is the slope of the line obtained by linear regression of a log-transformed tumor growth data set. The data set comprised the first observation that exceeded the study endpoint volume and the three consecutive observations that immediately preceded the attainment of the endpoint volume. […] In instances in which the log-transformed calculated TTE preceded the day prior to reaching endpoint or exceeded the day of reaching tumor volume endpoint, a linear interpolation was performed to approximate TTE.
# [1] = Groups 3-7: all dosing from Day 1 (antibodies i.p. Days 1, 5, 9, formula (I) p.o. bid×14), formula (I) and anti-CSF1R 10 mg/kg, anti-mCD40 1 mg/kg, vs rat IgG2a control Group 1
# [2] = Groups 9, 11, 13, 14: formula (I) 10 mg/kg p.o. bid×14 beginning Day 4 or anti-CSF1R 10 mg/kg i.p. Days 4, 8, 12, in combinations anti-mCD40 1 mg/kg i.p. Days 1, 5, 9, vs rat IgG2a control Group 1
# [3] = number of animals of n=10, Groups 3-7: all dosing from Day 1 (antibodies i.p. Days 1, 5, 9, formula (I) p.o. bid×14), formula (I) and anti-CSF1R 10 mg/kg, anti-mCD40 1 mg/kg
# [4] = number of animals of n=10, Groups 9, 11, 13, 14: formula (I) 10 mg/kg p.o. bid×14 beginning Day 4 or anti-CSF1R 10 mg/kg i.p. Days 4, 8, 12, in combinations anti-mCD40 1 mg/kg i.p. Days 1, 5, 9
smiles,measurement,setting,value
"CC1(C)CC=C(c2nc(C3CC(C)(C)OC(C)(C)C3)ccc2NC(=O)c2nc(C#N)c[nH]2)CC1 [compound of formula (I), 4-cyano-N-(2-(4,4-dimethylcyclohex-1-en-1-yl)-6-(2,2,6,6-tetramethyltetrahydro-2H-pyran-4-yl)pyridin-3-yl)-1H-imidazole-2-carboxamide]",% TGI,"Day 15, vs rat IgG2a control Group 1, Groups 3-7: all dosing from Day 1 (antibodies i.p. Days 1, 5, 9, formula (I) p.o. bid×14), formula (I) and anti-CSF1R 10 mg/kg, anti-mCD40 1 mg/kg",21%
same,% TGI,"Day 15, vs rat IgG2a control Group 1, Groups 9, 11, 13, 14: formula (I) 10 mg/kg p.o. bid×14 beginning Day 4 or anti-CSF1R 10 mg/kg i.p. Days 4, 8, 12, in combinations anti-mCD40 1 mg/kg i.p. Days 1, 5, 9",−24%
same,Median TTE,"Groups 3-7: all dosing from Day 1 (antibodies i.p. Days 1, 5, 9, formula (I) p.o. bid×14), formula (I) and anti-CSF1R 10 mg/kg, anti-mCD40 1 mg/kg, 1500 mm^3 endpoint",17.5 days
same,% TGD,[1],17%
same,T − C,[1],2.5 days
same,Median TTE,"Groups 9, 11, 13, 14: formula (I) 10 mg/kg p.o. bid×14 beginning Day 4 or anti-CSF1R 10 mg/kg i.p. Days 4, 8, 12, in combinations anti-mCD40 1 mg/kg i.p. Days 1, 5, 9, 1500 mm^3 endpoint",11.4 days
same,% TGD,[2],−24%
same,T − C,[2],-3.6 days
same,Regression CR,[3],0
same,Regression PR,[3],0
same,Regression CR,[4],0
same,Regression PR,[4],0
same,Regression TFS,"tumor-free survivors Day 61, of n=10, Groups 3-7: all dosing from Day 1 (antibodies i.p. Days 1, 5, 9, formula (I) p.o. bid×14), formula (I) and anti-CSF1R 10 mg/kg, anti-mCD40 1 mg/kg",0
same,Regression TFS,"tumor-free survivors Day 61, of n=10, Groups 9, 11, 13, 14: formula (I) 10 mg/kg p.o. bid×14 beginning Day 4 or anti-CSF1R 10 mg/kg i.p. Days 4, 8, 12, in combinations anti-mCD40 1 mg/kg i.p. Days 1, 5, 9",0
